# According to article PMC12118597 (Science Advances, 2025):
# “And” between values parts separate entries of the source, which are not always exact repeats. Equal values may be shown once. Read-outs that look alike come from different tables or passages of the source.
# Experiments:
# [1] = biological target: T1, SARS-CoV-2 NSP3 macrodomain (Mac1) (Severe acute respiratory syndrome coronavirus 2, UniProt P0DTD1); assay: biochemical; format: binding; conditions: for detectable binding at 200 μM in the HTRF assay: result in words
# [2] = biological target: T1, SARS-CoV-2 NSP3 macrodomain (Mac1); format: binding; conditions: for PanDDA run, overall: Hit / PanDDA run, overall: Modeled / PanDDA run, DMSO background map: 1-BDC / PanDDA run, DMSO background map: Hit / Hit (PanDDA run, DMSO background map) / 1-BDC (PanDDA run, DMSO background map): crystal soak 10 mM; for PanDDA run, overall: Hit / PanDDA run, overall: Modeled / Hit (PanDDA run, overall): P43 crystal form; for Total number of conformations: ligand conformations modeled in the crystal structure; for 2*(1-BDC) (%): occupancy estimate from PanDDA; for 1-BDC (PanDDA run, DMSO background map): event 1; for Hit (PanDDA run, overall): crystal soak, 10 mM soak concentration
# [3] = HTRF binding curve, SARS-CoV-2 Mac1
# [4] = SARS CoV-2 macrodomain HTRF assay, dose-response
# [5] = PanDDA background density correction factor
# [6] = TRUE = crystal structure with ligand obtained
# [7] = refined crystallographic occupancy
# [8] = site of ligand in X-ray crystal structure
# [9] = ligand-bound crystal structure obtained (TRUE)
# [10] = site occupied in X-ray crystal structure
# [11] = SARS CoV-2 macrodomain HTRF assay, single dose concentration 200 μM, read-out: Average % competition
# [12] = compound at 200 μM, mean of three to four technical replicates, read-out: % competition at 200 μM (preliminary HTRF screen)
# [13] = PanDDA background density correction, 1-BDC
Structure (SMILES),"Hill slope [1, 3]","Hill slope [1, 4]",Occupancy difference (refined_occupancy - 2*(1-BDC)) [2],"1-BDC [2, 5]","X-ray crystal structure [2, 6]","PanDDA run, overall: Hit [2]","PanDDA run, overall: Modeled [2]","PanDDA run, DMSO background map: 1-BDC [2]","PanDDA run, DMSO background map: Hit [2]",Total number of conformations [2],2*(1-BDC) (%) [2],"Refined ligand occupancy (%) [2, 7]","Binding site [2, 8]","X-ray crystal structure [2, 9]","Binding site [2, 10]",also measured
OCC(Nc1ncnc2[nH]ccc12)C1CC1 (centres unmarked) [AVI-3651],1.2,1.2,0,0.18,TRUE,TRUE,TRUE,0.18,TRUE,1,36%,36%,Adenosine,–,–,–
O[C@H]1CC[C@@H]2CCN(c3ncnc4[nH]ccc34)[C@@H]21 [AVI-3664],1.2,1.2,0,0.16,–,TRUE,TRUE,0.16,TRUE,1,32%,32%,–,TRUE,Adenosine,–
CCC(O)[C@H]1CCCN1c1ncnc2[nH]ccc12 (some centres unmarked) [AVI-3666],1.3,1.3,10,0.3,–,TRUE,TRUE,0.3,TRUE,1,60%,70%,–,TRUE,Adenosine,–
O=C(O)C(F)(F)F.OCC1(Nc2ncnc3[nH]ccc23)CCC1 [AVI-3670],1.2,1.2,0,0.18,TRUE,TRUE,TRUE,0.18,TRUE,2,36%,36%,Adenosine,–,–,–
CN(C)CC(CO)Nc1ncnc2[nH]ccc12 (centres unmarked) [AVI-3671],–,–,0,0.17,TRUE,TRUE,TRUE,0.17,TRUE,1,34%,34%,Adenosine,–,–,detectable binding at 200 μM in the HTRF assay [1]: neither had detectable binding
OCC(CN1CCCCC1)Nc1ncnc2[nH]ccc12 (centres unmarked) [AVI-3677],–,–,0,0.21,TRUE,TRUE,TRUE,0.21,TRUE,1,42%,42%,Adenosine,–,–,detectable binding at 200 μM in the HTRF assay [1]: neither had detectable binding
O=C(O)C(F)(F)F.OCC1(Nc2ncnc3[nH]ccc23)CCCC1 [AVI-3692],1.3,1.3,-24,0.22,TRUE,TRUE,TRUE,0.22,TRUE,1,44%,20%,Adenosine,–,–,–
CCC(CC)(CO)Nc1ncnc2[nH]ccc12 [AVI-3695],1.3,1.3,6,0.12,TRUE,TRUE,TRUE,0.12,TRUE,2,24%,30%,Adenosine,–,–,–
CCC(C)(CO)Nc1ncnc2[nH]ccc12 (centres unmarked) [AVI-3697],1.2,1.2,18,0.16,TRUE,TRUE,TRUE,0.16,TRUE,1,32%,50%,Adenosine,–,–,–
CC1(C)C[C@@H](CO)N(c2ncnc3[nH]ccc23)C1.O=C(O)C(F)(F)F [AVI-3704],1.1,1.1,0,0.33,–,TRUE,–,0.33,TRUE,1,66%,66%,–,TRUE,Adenosine,"inhibition at 200 µM [1, 11]: 90%; inhibition at 200 µM [1, 12]: 90%"
OCC1CC2(CCCC2)CN1c1ncnc2[nH]ccc12 (centres unmarked) [AVI-3708],1.1,1.1,0,0.32,–,TRUE,–,0.32,TRUE,1,64%,64%,–,TRUE,Adenosine,"inhibition at 200 µM [1, 11]: 90%; inhibition at 200 µM [1, 12]: 90%"
OCC1C2CCC(C2)N1c1ncnc2[nH]ccc12 (centres unmarked) [AVI-3713],1.1,1.1,0,0.29,–,TRUE,–,0.29,TRUE,1,58%,58%,–,TRUE,Adenosine,–
OC[C@@H]1C[C@@H]2CCC[C@@H]2N1c1ncnc2[nH]ccc12 [AVI-3720],1.2,1.2,0,0.29,–,TRUE,–,0.29,TRUE,1,58%,58%,–,TRUE,Adenosine,Phe132 loop open state [2]: TRUE
O=C(O)C(F)(F)F.OC1([C@H]2CCCN2c2ncnc3[nH]ccc23)Cc2ccccc2C1 [AVI-3731],1.1,1.1,0,0.2,–,TRUE,–,0.2,TRUE,1,40%,40%,–,TRUE,Adenosine,"inhibition at 200 µM [1, 11]: 100%; inhibition at 200 µM [1, 12]: 100%"
OCCC(CO)Nc1ncnc2[nH]ccc12 (centres unmarked) [AVI-3734],1.2,1.2,0,0.25,TRUE,TRUE,–,0.25,TRUE,1,50%,50%,Adenosine,–,–,–
CC(O)C1CCCN1c1ncnc2[nH]ccc12 (centres unmarked) [AVI-4062],1.1,1.1,–,–,–,–,–,–,–,–,52%,–,–,TRUE,Adenosine,"1-BDC [2, 13]: 0.26; Hit (PanDDA run, DMSO background map) [2]: TRUE; 1-BDC (PanDDA run, DMSO background map) [2]: 0.26 and 0.29; Hit (PanDDA run, overall) [2]: TRUE; Refined ligand occupancy (%) ([2]; crystallographic refinement): 70%"
C[C@H]1CC[C@H](CO)N(c2ncnc3[nH]ccc23)C1 [AVI-4063],1.1,1.1,–,–,–,–,–,–,–,–,32%,–,–,TRUE,Adenosine,"1-BDC [2, 13]: 0.16; Hit (PanDDA run, DMSO background map) [2]: TRUE; 1-BDC (PanDDA run, DMSO background map) [2]: 0.21 and 0.16; Hit (PanDDA run, overall) [2]: TRUE; Refined ligand occupancy (%) ([2]; crystallographic refinement): 50%"
C[C@@H]1CCN(c2ncnc3[nH]ccc23)[C@H](CO)C1 [AVI-4064],1.2,1.2,–,–,–,–,–,–,–,–,38%,–,–,TRUE,Adenosine,"1-BDC [2, 13]: 0.19; Hit (PanDDA run, DMSO background map) [2]: TRUE; 1-BDC (PanDDA run, DMSO background map) [2]: 0.19; Hit (PanDDA run, overall) [2]: TRUE; Refined ligand occupancy (%) ([2]; crystallographic refinement): 38%"
